Test results from patent US4175125A, “Method for treating methicillin resistant staphylococcus aureus” (Eli Lilly and Company, priority 1978, dated 1979).
Converted amounts (≈) assume the structure as drawn. Where two headings read alike, the source gives them in different places.

Key:
Format in all cases: cell-based
[1] = tested on: Staphylococcus aureus cultures; assay: Agar dilution susceptibility test, phenylthioacetyl cephalosporins vs methicillin resistant S. aureus (Example 9); details: for MIC: Staphylococcus aureus, read-out: MIC
In short: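 Agar dilution MIC, μg/mL, against Staphylococcus aureus isolates, inocula diluted to 10^3 bacteria per spot. Panel: penicillin-sensitive 3055 and penicillin-resistant H232 controls, methicillin-resistant clinical isolates, and laboratory-selected mutant 3136.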

[2] = tested on: Staphylococcus aureus cultures; assay: Broth dilution MIC in trypticase soy broth, low and high NaCl (Example 10); details: Staphylococcus aureus, TSB, read-out: MIC
In short: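 MIC by broth dilution, in µg/ml, against Staphylococcus aureus cultures grown in trypticase soy broth containing either 0.5 percent or 5.0 percent NaCl. The high-salt condition serves to distinguish methicillin-resistant cultures.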

[3] = tested on: Staphylococcus aureus cultures; assay: Modified Bauer-Kirby Disc Susceptibility Test (Example 11); design: zone of inhibition: dose or concentration left out as unconfirmed; details: for zone of inhibition: Staphylococcus aureus; for Change 37°-30°: 30 mg Disc
Procedure: This example exemplifies the antibiotic activity of 7-[2'-(3"-chloro-4"-fluorophenylthio)acetamido]cephalosporanic acid, a water soluble compound, described in Example 8, against various Staphylococcus aureus cultures, in a modified Bauer-Kirby Disc Susceptibility Test (Bauer, A. W., W. M. M. Kirby, J. C. Sherris, and M. Turck, 1966, Amer. J. Clin. Pathol. 45:493-496). In this test the cultures were incubated at both 37° C. or 30° C. […] 16, 1968, the heterogeneity of methicilllin-resistant S. aureus is manifested by incubation at 30° C.

[4] = culture 3130, table part marked b
[5] = culture 3130, table part marked c
[6] = culture 3131, table part marked b
[7] = culture 3131, table part marked c
[8] = culture 3134, table part marked b
[9] = culture 3134, table part marked c
[10] = culture 3135, table part marked b
[11] = culture 3135, table part marked c
[12] = culture 3136, table part marked b
[13] = culture 3136, table part marked c
[14] = culture 3137, table part marked b
[15] = culture 3137, table part marked c
[16] = culture 3138, table part marked b
[17] = culture 3138, table part marked c
[18] = culture 3139, table part marked b
[19] = culture 3139, table part marked c
[20] = culture (Seattle) 966, table part marked b
[21] = culture (Seattle) 966, table part marked c
[22] = culture S61, table part marked b
[23] = culture S61, table part marked c

MIC ([1]; culture 3055 (control, benzylpenicillin sensitive), table part marked b): < 0.06 µg/mL
MIC ([1]; culture 3055 (control, benzylpenicillin sensitive), table part marked c): < 0.06 µg/mL
MIC [1, 4]: 0.5 µg/mL (≈ 1.02 µM)
MIC [1, 5]: 1 µg/mL (≈ 2.04 µM)
MIC [1, 6]: 0.5 µg/mL (≈ 1.02 µM)
MIC [1, 7]: 2 µg/mL (≈ 4.07 µM)
MIC ([1]; culture 3132, table part marked b): 0.25 µg/mL (≈ 0.509 µM)
MIC ([1]; culture 3132, table part marked c): 0.5 µg/mL (≈ 1.02 µM)
MIC ([1]; culture 3133, table part marked b): 1 µg/mL (≈ 2.04 µM)
MIC ([1]; culture 3133, table part marked c): 1 µg/mL (≈ 2.04 µM)
MIC [1, 8]: 0.5 µg/mL (≈ 1.02 µM)
MIC [1, 9]: 1 µg/mL (≈ 2.04 µM)
MIC [1, 10]: 0.5 µg/mL (≈ 1.02 µM)
MIC [1, 11]: 1 µg/mL (≈ 2.04 µM)
MIC [1, 12]: 0.25 µg/mL (≈ 0.509 µM)
MIC [1, 13]: 2 µg/mL (≈ 4.07 µM)
MIC [1, 14]: 2 µg/mL (≈ 4.07 µM)
MIC [1, 15]: 4 µg/mL (≈ 8.14 µM)
MIC [1, 16]: 2 µg/mL (≈ 4.07 µM)
MIC [1, 17]: 1 µg/mL (≈ 2.04 µM)
MIC [1, 18]: 0.5 µg/mL (≈ 1.02 µM)
MIC [1, 19]: 1 µg/mL (≈ 2.04 µM)
MIC [1, 20]: 0.25 µg/mL (≈ 0.509 µM)
MIC [1, 21]: 0.5 µg/mL (≈ 1.02 µM)
MIC ([1]; culture H232 (control, benzylpenicillin-resistant), table part marked b): < 0.06 µg/mL
MIC ([1]; culture H232 (control, benzylpenicillin-resistant), table part marked c): < 0.06 µg/mL
MIC ([1]; culture Kavarmark 1138501, table part marked b): 0.5 µg/mL (≈ 1.02 µM)
MIC ([1]; culture Kavarmark 1138501, table part marked c): 2 µg/mL (≈ 4.07 µM)
MIC [1, 22]: 0.5 µg/mL (≈ 1.02 µM)
MIC [1, 23]: 2 µg/mL (≈ 4.07 µM)
MIC ([2]; culture 3055 (control), table part marked b): 0.06 µg/mL (≈ 0.122 µM)
MIC ([2]; culture 3055 (control), table part marked c): 0.06 µg/mL (≈ 0.122 µM)
MIC [2, 4]: < 0.5 µg/mL
MIC [2, 5]: 2 µg/mL (≈ 4.07 µM)
MIC [2, 6]: < 0.5 µg/mL
MIC [2, 7]: 1 µg/mL (≈ 2.04 µM)
MIC ([2]; culture 3132 (first column so headed), table part marked b): < 0.5 µg/mL
MIC ([2]; culture 3132 (first column so headed), table part marked c): 1 µg/mL (≈ 2.04 µM)
MIC ([2]; culture 3132 (second column so headed), table part marked b): < 0.5 µg/mL
MIC ([2]; culture 3132 (second column so headed), table part marked c): 2 µg/mL (≈ 4.07 µM)
MIC [2, 8]: 1 µg/mL (≈ 2.04 µM)
MIC [2, 9]: 2 µg/mL (≈ 4.07 µM)
MIC [2, 10]: < 0.5 µg/mL
MIC [2, 11]: 2 µg/mL (≈ 4.07 µM)
MIC [2, 12]: 0.5 µg/mL (≈ 1.02 µM)
MIC [2, 13]: 2 µg/mL (≈ 4.07 µM)
MIC [2, 14]: 2 µg/mL (≈ 4.07 µM)
MIC [2, 15]: 4 µg/mL (≈ 8.14 µM)
MIC [2, 16]: 1 µg/mL (≈ 2.04 µM)
MIC [2, 17]: 2 µg/mL (≈ 4.07 µM)
MIC [2, 18]: 2 µg/mL (≈ 4.07 µM)
MIC [2, 19]: 2 µg/mL (≈ 4.07 µM)
MIC [2, 20]: 1 µg/mL (≈ 2.04 µM)
MIC [2, 21]: 8 µg/mL (≈ 16.3 µM)
MIC ([2]; culture H232 (control), table part marked b): 0.12 µg/mL (≈ 0.244 µM)
MIC ([2]; culture H232 (control), table part marked c): 0.12 µg/mL (≈ 0.244 µM)
MIC ([2]; culture Kavarnick 1138501, table part marked b): 0.5 µg/mL (≈ 1.02 µM)
MIC ([2]; culture Kavarnick 1138501, table part marked c): 1 µg/mL (≈ 2.04 µM)
MIC [2, 22]: 0.5 µg/mL (≈ 1.02 µM)
MIC [2, 23]: 1 µg/mL (≈ 2.04 µM)
MIC ([2]; culture S, table part marked b): 0.5 µg/mL (≈ 1.02 µM)
MIC ([2]; culture S, table part marked c): 2 µg/mL (≈ 4.07 µM)
SMILES: CC(=O)OCC1=C(C(=O)O)N2C(=O)C(NC(=O)CSc3cc(Cl)cc(Cl)c3)C2SC1 (centres unmarked) [Example 3, 7-(3,5-Dichlorophenylthioacetamido)-cephalosporanic acid]
effectiveness in in vitro tests vs methicillin, cephalothin and cephaloridine ([1]; various cultures of methicillin-resistant Staphylococcus aureus): substantially more effective than methicillin, cephalothin, and cephaloridine
zone of inhibition ([3]; culture 3055 (penicillin sensitive), 30°, read-out: disc susceptibility (zone) at 30°): > 35 mm
zone of inhibition ([3]; culture 3055 (penicillin sensitive), 37°, read-out: disc susceptibility (zone) at 37°): > 35 mm
zone of inhibition ([3]; culture 3074 (methicillin sensitive, penicillinase producing), 30°, read-out: disc susceptibility (zone) at 30°): 35 mm
zone of inhibition ([3]; culture 3074 (methicillin sensitive, penicillinase producing), 37°, read-out: disc susceptibility (zone) at 37°): 35 mm
zone of inhibition ([3]; culture 3125 (methicillin resistant), 30°, read-out: disc susceptibility (zone) at 30°): 37 mm
zone of inhibition ([3]; culture 3125 (methicillin resistant), 37°, read-out: disc susceptibility (zone) at 37°): 34.2 mm
zone of inhibition ([3]; culture 3130 (methicillin resistant), 30°, read-out: disc susceptibility (zone) at 30°): 33.6 mm
zone of inhibition ([3]; culture 3130 (methicillin resistant), 37°, read-out: disc susceptibility (zone) at 37°): 32 mm
zone of inhibition ([3]; culture 3131 (methicillin resistant), 30°, read-out: disc susceptibility (zone) at 30°): 31.8 mm
zone of inhibition ([3]; culture 3131 (methicillin resistant), 37°, read-out: disc susceptibility (zone) at 37°): 30.6 mm
zone of inhibition ([3]; culture 3132 (methicillin resistant), 30°, read-out: disc susceptibility (zone) at 30°): 32.6 mm
zone of inhibition ([3]; culture 3132 (methicillin resistant), 37°, read-out: disc susceptibility (zone) at 37°): 31 mm
zone of inhibition ([3]; culture 3133 (methicillin resistant), 30°, read-out: disc susceptibility (zone) at 30°): 30.8 mm
zone of inhibition ([3]; culture 3133 (methicillin resistant), 37°, read-out: disc susceptibility (zone) at 37°): 29 mm
zone of inhibition ([3]; culture 3134 (methicillin resistant), 30°, read-out: disc susceptibility (zone) at 30°): 33 mm
zone of inhibition ([3]; culture 3134 (methicillin resistant), 37°, read-out: disc susceptibility (zone) at 37°): 29.8 mm
zone of inhibition ([3]; culture 3135 (methicillin resistant), 30°, read-out: disc susceptibility (zone) at 30°): 29.6 mm
zone of inhibition ([3]; culture 3135 (methicillin resistant), 37°, read-out: disc susceptibility (zone) at 37°): 28.3 mm
zone of inhibition ([3]; culture 3136 (methicillin resistant), 30°, read-out: disc susceptibility (zone) at 30°): 29.8 mm
zone of inhibition ([3]; culture 3136 (methicillin resistant), 37°, read-out: disc susceptibility (zone) at 37°): 35 mm
zone of inhibition ([3]; culture 3137 (methicillin resistant), 30°, read-out: disc susceptibility (zone) at 30°): 26 mm
zone of inhibition ([3]; culture 3137 (methicillin resistant), 37°, read-out: disc susceptibility (zone) at 37°): 26.2 mm
zone of inhibition ([3]; culture 3138 (methicillin resistant), 30°, read-out: disc susceptibility (zone) at 30°): 29.4 mm
zone of inhibition ([3]; culture 3138 (methicillin resistant), 37°, read-out: disc susceptibility (zone) at 37°): 27 mm
zone of inhibition ([3]; culture 3139 (methicillin resistant), 30°, read-out: disc susceptibility (zone) at 30°): 32.2 mm
zone of inhibition ([3]; culture 3139 (methicillin resistant), 37°, read-out: disc susceptibility (zone) at 37°): 36 mm
zone of inhibition ([3]; culture 3140 (methicillin resistant), 30°, read-out: disc susceptibility (zone) at 30°): 30.2 mm
zone of inhibition ([3]; culture 3140 (methicillin resistant), 37°, read-out: disc susceptibility (zone) at 37°): 28.8 mm
zone of inhibition ([3]; culture H232 (methicillin sensitive, penicillinase producing), 30°, read-out: disc susceptibility (zone) at 30°): 32.6 mm
zone of inhibition ([3]; culture H232 (methicillin sensitive, penicillinase producing), 37°, read-out: disc susceptibility (zone) at 37°): 34.1 mm
Change 37°-30° ([3]; culture 3074): 0 mm
Change 37°-30° ([3]; culture 3125): +2.8 mm
Change 37°-30° ([3]; culture 3130): +1.6 mm
Change 37°-30° ([3]; culture 3131): +1.2 mm
Change 37°-30° ([3]; culture 3132): +1.6 mm
Change 37°-30° ([3]; culture 3133): +1.8 mm
Change 37°-30° ([3]; culture 3134): +3.2 mm
Change 37°-30° ([3]; culture 3135): +1.3 mm
Change 37°-30° ([3]; culture 3136): +5.2 mm
Change 37°-30° ([3]; culture 3137): -0.2 mm
Change 37°-30° ([3]; culture 3138): +2.4 mm
Change 37°-30° ([3]; culture 3139): -3.8 mm
Change 37°-30° ([3]; culture 3140): +1.4 mm
Change 37°-30° ([3]; culture H232): -1.5 mm
